Structures can show the parent of a compound that is named as a salt.
Tested on: children and adolescents with autistic spectrum disorders
Assay: Open-label trial of Memantine in children and adolescents with autistic spectrum disorders
Type: in vivo, human
Description: In support of the present invention, an experiment was conducted to evaluate the use of Memantine in children and adolescents with autistic spectrum disorders (hereinafter referred to as “ASD”). […] A range of 2.5-10 mg per day of Memantine was applied as an open-label trial in children with ASD. Clinical observations of global function in language and/or behavior pattern were assessed. Thirty patients, including 24 males and 6 females with an average age of 8.92 years and meeting DSM-IV criteria for ASD, were treated with Memantine for greater than 8 weeks. The patients were evaluated using a global clinical improvement scale rating for improvement in language and behaviors based on parental observation and clinical appearance. Improvements were rated as follows: moderate to significant, mild to moderate, or no improvement. The therapy ranged from between 8 to 40 weeks, with an average duration of therapy of 18 weeks and an average daily dosage of 8.1 mg. After the thirty patients were treated for more than 2 months with Memantine, parents reported improvements in 26 of the 30 patients in one or more categories: attention, motor planning, language function (both receptively and expressively), and self-stimulatory behaviors. Moderate to significant improvement occurred in 16 of the 26, with milder improvement in 10 of the 26.

[1] = open-label, 2.5-10 mg per day, treated more than 2 months, global clinical improvement scale

Structure (SMILES): CC12CC3CC(C)(C1)CC(N)(C3)C2 [Memantine, 1-amino-3,5-dimethyladamantane hydrochloride]
- frontal executive functions (attention, speech expression, perseveration) (open-label trial in ASD, overall clinical observation): appears to clearly improve frontal executive functions
- side effects (open-label, 2.5-10 mg per day, 30 patients treated more than 2 months): No side effects were reported
- patients with parent-reported improvements in one or more categories (attention, motor planning, language function, self-stimulatory behaviors) (open-label, 2.5-10 mg per day, average 8.1 mg daily, treated more than 2 months (8 to 40 weeks), global clinical improvement scale): 26 of the 30 patients
- patients with milder improvement [1]: 10 of the 26
- patients with moderate to significant improvement [1]: 16 of the 26

From US20090048348A1, “METHOD FOR TREATING AUTISM” (Forest Laboratories Holdings Ltd., priority 2004, published 2009)
